According to patent US11446223B2, “Anti-aging composition” (NEOPHARM CO., LTD., priority 2016, dated 2022):

Experiments:
Assay type in all cases: cell-based
[1] = system: Artificial skin (EpiDermFT); experiment: Collagen synthesis in artificial skin, Masson's Trichrome staining; details: 100 μl at 1% on artificial skin surface, 24 hours, versus PBS (Comparative Example 2)
Procedure: Artificial skin (EpiDermFT™ from MatTek, Ashland, USA) was purchased, and stabilized in an exclusive medium (EFT-400) for 18 hours. On the surface of the artificial skin, 100 μl of N-(1,3-dihydroxy propan-2-yl)-2-ethylhexanamide as an effective component (anti-aging composition) at a concentration of 1% was applied. After 24 hours, the artificial skin tissue was immobilized with 10% formaldehyde, embedded with paraffin, and sliced at 5 μm to obtain a sliced tissue which was used for confirming the effect of accelerating collagen synthesis (see FIG. 2).
The artificial skin was stabilized in the same manner as in Example 2, and coated with only 100 μl of PBS without an effective component. After 24 hours, the artificial skin tissue was immobilized with 10% formaldehyde, embedded with paraffin, and sliced at 5 μm to obtain a sliced tissue which was used for confirming the effect of accelerating collagen synthesis.

[2] = system: human-derived fibroblasts; experiment: Toxicity / cell proliferation in human-derived fibroblasts; details: 20 uM
human fibroblasts = experiment: Type-1 collagen synthesis in human fibroblasts (PICP EIA kit); details: 24 hours
Procedure: N-(1,3-dihydroxy propan-2-yl)-2-ethylhexanamide was added to a culture medium of human fibroblasts (DMEM medium, 10% fetal bovine serum, 1% antibiotics) to confirm the effect of accelerating type-1 collagen synthesis in a cell level. The measurement of the synthesized collagen was qualified using a procollagen type I C-peptide enzyme immunoassay kit (PICP EIA kit).
The human fibroblast culture medium was used to aliquot the human-derived fibroblasts (human fibroblasts) into 6 wells at 2×10^5 cell/well. After cell adhesion was confirmed, the culture medium was treated with 2 ml of N-(1,3-dihydroxy propan-2-yl)-2-ethylhexanamide as an effective component (anti-aging composition) per each well, at a concentration of 20 uM. After the culture medium was cultured in an incubator under a condition of 37° C. and 5% CO2 for 24 hours, type-1 collagen which is related to a wrinkle forming factor was measured in a cell extract. […]
The effect of accelerating type-1 collagen synthesis was confirmed in the same manner as in Example 1, except that the effective component was not used (a negative control). In addition, type-1 collagen synthesis ability relative to the negative control was calculated as a ratio, and illustrated as a rate of increase (see Table 1 and FIG. 1).

SMILES: CCCCC(CC)C(=O)NC(CO)CO (stereo not shown) [Example 1, N-(1,3-dihydroxypropan-2-yl)-2-ethylhexanamide]
- effect of accelerating collagen synthesis (Masson's Trichrome staining) [1]: accelerated collagen synthesis much more
- toxicity [2]: not toxic
- Type-1 collagen concentration (20 uM) (human fibroblasts; 20 uM compound, cell extract, human fibroblasts): 0.017
- Rate of increase (%) (human fibroblasts; type-1 collagen relative to negative control (Comparative Example 1), 20 uM): 242%
